Assay results: patent publication US20250326732A1 (Pretzel Therapeutics, Inc., priority 2021, published 2025)

Biological target: POLRMT (Homo sapiens (Human), UniProt O00411)
Test: homogeneous TR-FRET assay of mitochondrial transcription (inhibition of POLRMT)
Format: biochemical
Conditions: 7.5 nM POLRMT, 15 nM TFB2M, 30 nM TFAM, 0.5 nM DNA template, 500 μM NTPs, 37° C. for 60 minutes
In short: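 POLRMT transcription from linearized pUC-LSP DNA template; RNA product detected by hybridization of ATTO647 acceptor (1 nM) and biotinylated donor (3 nM) probes plus Europium-streptavidin. Reaction stopped with EDTA/700 mM NaCl buffer, pH 7.5.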

Sequence of POLRMT (O00411 42-1230): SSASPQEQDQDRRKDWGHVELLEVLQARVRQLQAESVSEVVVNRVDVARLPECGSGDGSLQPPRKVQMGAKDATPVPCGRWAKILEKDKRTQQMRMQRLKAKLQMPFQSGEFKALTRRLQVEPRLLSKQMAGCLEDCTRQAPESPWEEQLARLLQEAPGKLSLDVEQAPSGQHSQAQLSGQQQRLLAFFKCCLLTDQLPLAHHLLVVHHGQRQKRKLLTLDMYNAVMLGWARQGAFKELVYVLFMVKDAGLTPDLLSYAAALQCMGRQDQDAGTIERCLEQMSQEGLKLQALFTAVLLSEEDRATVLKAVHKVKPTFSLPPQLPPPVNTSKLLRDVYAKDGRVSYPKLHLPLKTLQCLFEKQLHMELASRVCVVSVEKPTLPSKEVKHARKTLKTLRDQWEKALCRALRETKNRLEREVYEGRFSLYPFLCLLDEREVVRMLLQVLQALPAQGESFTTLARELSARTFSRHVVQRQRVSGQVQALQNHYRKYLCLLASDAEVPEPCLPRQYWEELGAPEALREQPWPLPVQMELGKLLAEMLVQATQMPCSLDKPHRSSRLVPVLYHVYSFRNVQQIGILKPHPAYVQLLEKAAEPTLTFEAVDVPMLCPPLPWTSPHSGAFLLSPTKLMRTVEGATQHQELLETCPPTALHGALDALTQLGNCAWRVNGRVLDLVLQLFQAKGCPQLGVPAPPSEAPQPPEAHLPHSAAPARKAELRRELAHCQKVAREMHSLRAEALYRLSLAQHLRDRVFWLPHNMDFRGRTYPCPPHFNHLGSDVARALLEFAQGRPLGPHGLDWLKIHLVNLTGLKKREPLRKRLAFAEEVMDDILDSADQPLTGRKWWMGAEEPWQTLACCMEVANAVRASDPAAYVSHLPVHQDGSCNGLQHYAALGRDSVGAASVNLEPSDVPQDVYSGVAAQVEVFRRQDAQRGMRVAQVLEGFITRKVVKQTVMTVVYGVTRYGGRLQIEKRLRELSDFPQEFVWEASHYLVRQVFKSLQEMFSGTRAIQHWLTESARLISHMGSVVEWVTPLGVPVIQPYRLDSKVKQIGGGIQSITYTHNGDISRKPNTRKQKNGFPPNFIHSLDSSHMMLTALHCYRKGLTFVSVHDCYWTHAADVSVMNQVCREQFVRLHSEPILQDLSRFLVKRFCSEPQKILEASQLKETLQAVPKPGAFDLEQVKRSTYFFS

IC50 [µM]	Structure (SMILES)
0.8	Cc1ccccc1-c1cc(=O)oc2cc(NC(C)C(N)=O)ccc12 (single isomer, unassigned) [Example 190, 2-((2-oxo-4-(o-tolyl)-2H-chromen-7-yl)amino)propanamide]
1	COCc1ccc2c(-c3ccc(F)cc3Cl)cc(=O)oc2c1 [Example 16, 4-(2-chloro-4-fluorophenyl)-7-(methoxymethyl)-2H-chromen-2-one]
0.2	Cc1ccccc1-c1cc(=O)oc2cc(CNC(=O)C3CCC(C(=O)O)CC3)ccc12 (stereo not shown) [Example 153, 4-(((2-oxo-4-(o-tolyl)-2H-chromen-7-yl)methyl)carbamoyl)cyclohexane-1-carboxylic acid]
21	COC[C@@H](C(=O)N1CCC[C@H](C(=O)O)C1)N(C)c1ccc2c(-c3ccccc3C)cc(=O)oc2c1 (single isomer, unassigned) [Example 120]
47	CC(=O)NC[C@H]1CCN(C(=O)c2ccc3c(-c4ccccc4C)cc(=O)oc3c2)C1 [Example 174, (R)—N-((1-(2-oxo-4-(o-tolyl)-2H-chromene-7-carbonyl)pyrrolidin-3-yl)methyl)acetamide]
2	CC(O)c1ccc2c(-c3ccc(F)cc3Cl)cc(=O)oc2c1 (stereo not shown) [Example 40, 4-(2-chloro-4-fluorophenyl)-7-(1-hydroxyethyl)-2H-chromen-2-one]
0.1	C[C@H](Cc1ccc2c(-c3ccc(F)cc3Cl)cc(=O)oc2c1)C(=O)N1CCC[C@H](C(=O)O)C1 [Example 187, (S)-1-((R)-3-(4-(2-chloro-4-fluorophenyl)-2-oxo-2H-chromen-7-yl)-2-methylpropanoyl)piperidine-3-carboxylic acid]
3	COCC(Cc1ccc2c(-c3ccccc3C)cc(=O)oc2c1)C(N)=O (single isomer, unassigned) [Example 208, 3-methoxy-2-((2-oxo-4-(o-tolyl)-2H-chromen-7-yl)methyl)propanamide]
4	Cc1ccccc1-c1cc(=O)oc2cc(CC(C)C(=O)N3CCC(C(=O)O)CC3)ccc12 (single isomer, unassigned) [Example 95, 1-(2-methyl-3-(2-oxo-4-(o-tolyl)-2H-chromen-7-yl)propanoyl)piperidine-4-carboxylic acid]
3	Cc1ccccc1-c1cc(=O)oc2cc(CNC(=O)N3CCC(C(=O)O)CC3)ccc12 [Example 151, 1-(((2-oxo-4-(o-tolyl)-2H-chromen-7-yl)methyl)carbamoyl)piperidine-4-carboxylic acid]
18	CCOC(=O)/C(C)=C/c1ccc2c(-c3ccc(F)cc3Cl)cc(=O)oc2c1 [Example 14, ethyl (E)-3-(4-(2-chloro-4-fluorophenyl)-2-oxo-2H-chromen-7-yl)-2-methylacrylate]
2	Cc1ccccc1-c1cc(=O)oc2cc(N[C@H](C)CC(=O)O)ccc12 [Example 148, (R)-3-((2-oxo-4-(o-tolyl)-2H-chromen-7-yl)amino)butanoic acid]
0.4	Cc1ccccc1-c1cc(=O)oc2cc(N(C)C)ccc12 [Example 01, 7-(dimethylamino)-4-(o-tolyl)-2H-chromen-2-one]
0.1	C[C@@H](Nc1ccc2c(-c3ccc(F)cc3Cl)cc(=O)oc2c1)C(=O)N1CCCCC1 [Example 27, (R)-4-(2-chloro-4-fluorophenyl)-7-((1-oxo-1-(piperidin-1-yl)propan-2-yl)amino)-2H-chromen-2-one]
2	Cc1ccccc1-c1cc(=O)oc2cc(C(=O)Nc3ccccc3)ccc12 [Example 35, 2-oxo-N-phenyl-4-(o-tolyl)-2H-chromene-7-carboxamide]
7	Cc1ccccc1-c1cc(=O)oc2cc(C(=O)N3CC(C(N)=O)C3)ccc12 [Example 183, 1-(2-oxo-4-(o-tolyl)-2H-chromene-7-carbonyl) azetidine-3-carboxamide]
0.9	CCOC(=O)CCc1ccc2c(-c3ccccc3C)cc(=O)oc2c1 [Example 54, ethyl 3-(2-oxo-4-(o-tolyl)-2H-chromen-7-yl)propanoate]
3	Cc1ccccc1-c1cc(=O)oc2cc(NCC(=O)N3CCCCC3)ccc12 [Example 72, 7-((2-oxo-2-(piperidin-1-yl)ethyl)amino)-4-(o-tolyl)-2H-chromen-2-one]
0.04	Cc1ccccc1-c1cc(=O)oc2cc(N(C)CC(=O)OC(C)(C)C)ccc12 [Example 70, tert-butyl N-methyl-N-(2-oxo-4-(o-tolyl)-2H-chromen-7-yl)glycinate]
0.08	Cc1ccccc1-c1cc(=O)oc2cc(N(C)Cc3ncco3)ccc12 [Example 188, 7-(methyl(oxazol-2-ylmethyl)amino)-4-(o-tolyl)-2H-chromen-2-one]
2	Cc1ccccc1-c1cc(=O)oc2cc(N(C)CC(=O)NCCN(C)C)ccc12 [Example 221, N-(2-(dimethylamino)ethyl)-2-(methyl(2-oxo-4-(o-tolyl)-2H-chromen-7-yl)amino)acetamide]
7	Cc1ccccc1-c1cc(=O)oc2cc([C@@H]3C[C@H]3C(=O)N(C)C)ccc12 (relative stereo) [Example 236, (trans)-N,N-dimethyl-2-(2-oxo-4-(o-tolyl)-2H-chromen-7-yl)cyclopropane-1-carboxamide]

IC50 [µM]	Structure (SMILES)
2	CCOC(=O)/C=C/c1ccc2c(-c3ccccc3C)cc(=O)oc2c1 [Example 53, ethyl (E)-3-(2-oxo-4-(o-tolyl)-2H-chromen-7-yl)acrylate]
0.09	CCOC(=O)[C@H]1CCCN(C(=O)C(C)Cc2ccc3c(-c4ccccc4C)cc(=O)oc3c2)C1 (single isomer, unassigned) [Example 88]
2	CNC(=O)CCN(C)c1ccc2c(-c3ccc(F)cc3Cl)cc(=O)oc2c1 [Example 138, 3-((4-(2-chloro-4-fluorophenyl)-2-oxo-2H-chromen-7-yl)(methyl)amino)-N-methylpropanamide]
0.9	CNC(=O)CCN(C)c1ccc2c(-c3ccccc3C)cc(=O)oc2c1 [Example 140, N-methyl-3-(methyl(2-oxo-4-(o-tolyl)-2H-chromen-7-yl)amino)propanamide]
0.3	Cc1ccccc1-c1cc(=O)oc2cc(CC(C)C(=O)N3CCC[C@H](S(C)(=O)=O)C3)ccc12 (single isomer, unassigned) [Example 85]
12	Cc1ccccc1-c1cc(=O)oc2cc(C(=O)NCC(N)=O)ccc12 [Example 113, N-(2-amino-2-oxoethyl)-2-oxo-4-(o-tolyl)-2H-chromene-7-carboxamide]
10	O=c1cc(-c2ccc(F)cc2Cl)c2ccc(CO)cc2o1 [Example 13, 4-(2-chloro-4-fluorophenyl)-7-(hydroxymethyl)-2H-chromen-2-one]
45	COC[C@@H]1CCN(C(=O)c2ccc3c(-c4ccccc4C)cc(=O)oc3c2)C1 [Example 116, (R)-7-(3-(methoxymethyl)pyrrolidine-1-carbonyl)-4-(o-tolyl)-2H-chromen-2-one]
0.4	Cc1ccccc1-c1cc(=O)oc2cc([C@H]3C[C@H]3C(=O)O)ccc12 (racemic) [Example 226, (cis)-2-(2-oxo-4-(o-tolyl)-2H-chromen-7-yl)cyclopropane-1-carboxylic acid]
64	Cc1ccccc1-c1cc(=O)oc2cc(C(=O)N(C)C3CCOCC3)ccc12 [Example 111, N-methyl-2-oxo-N-(tetrahydro-2H-pyran-4-yl)-4-(o-tolyl)-2H-chromene-7-carboxamide]
0.03	Cc1ccccc1-c1cc(=O)oc2cc(N(C)Cc3ccon3)ccc12 [Example 204, 7-((isoxazol-3-ylmethyl)(methyl)amino)-4-(o-tolyl)-2H-chromen-2-one]
0.1	Cc1ccccc1-c1cc(=O)oc2cc(CN(C)C(=O)C3CCC(C(=O)O)CC3)ccc12 (stereo not shown) [Example 229, 4-(methyl((2-oxo-4-(o-tolyl)-2H-chromen-7-yl)methyl)carbamoyl)cyclohexane-1-carboxylic acid]
0.02	Cc1ccccc1-c1cc(=O)oc2cc(N(C)CC(=O)OC(C)C)ccc12 [Example 141, isopropyl N-methyl-N-(2-oxo-4-(o-tolyl)-2H-chromen-7-yl)glycinate]
0.2	CC[C@@H](C(=O)O)N(C)c1ccc2c(-c3ccccc3C)cc(=O)oc2c1 [Example 180, (S)-2-(methyl(2-oxo-4-(o-tolyl)-2H-chromen-7-yl)amino)butanoic acid]
0.03	COC(=O)CN(C)c1ccc2c(-c3ccccc3C)cc(=O)oc2c1 [Example 143, methyl N-methyl-N-(2-oxo-4-(o-tolyl)-2H-chromen-7-yl)glycinate]
5	Cc1ccccc1-c1cc(=O)oc2cc(CC(=O)O)ccc12 [Example 233, 2-(2-oxo-4-(o-tolyl)-2H-chromen-7-yl) acetic acid]
0.9	Cc1ccccc1-c1cc(=O)oc2cc([C@@H]3C[C@H]3C(N)=O)ccc12 (relative stereo) [Example 239, chiral-(trans)-2-(2-oxo-4-(o-tolyl)-2H-chromen-7-yl)cyclopropane-1-carboxamide]
0.3	COC[C@@H](Nc1ccc2c(-c3ccccc3C)cc(=O)oc2c1)C(=O)N1CCC[C@H](C(=O)O)C1 [Example 104, (S)-1-(O-methyl-N-(2-oxo-4-(o-tolyl)-2H-chromen-7-yl)-D-seryl)piperidine-3-carboxylic acid]
3	Cc1ccccc1-c1cc(=O)oc2cc(CC(C)C(=O)N3CCCCC3)ccc12 (single isomer, unassigned) [Example 63, 7-(2-methyl-3-oxo-3-(piperidin-1-yl)propyl)-4-(o-tolyl)-2H-chromen-2-one]
0.2	C[C@@H](Cc1ccc2c(-c3ccc(F)cc3Cl)cc(=O)oc2c1)C(=O)N1CCCCC1 [Example 18, (S)-4-(2-chloro-4-fluorophenyl)-7-(2-methyl-3-oxo-3-(piperidin-1-yl)propyl)-2H-chromen-2-one]
0.09	Cc1ccccc1-c1cc(=O)oc2cc(N(C)Cc3ccccn3)ccc12 [Example 168, 7-(methyl(pyridin-2-ylmethyl)amino)-4-(o-tolyl)-2H-chromen-2-one]
